Target: T1, HDAC8 (histone deacetylase 8) (Homo sapiens, UniProt Q9BY41)
T1 sequence (Q9BY41 1-377): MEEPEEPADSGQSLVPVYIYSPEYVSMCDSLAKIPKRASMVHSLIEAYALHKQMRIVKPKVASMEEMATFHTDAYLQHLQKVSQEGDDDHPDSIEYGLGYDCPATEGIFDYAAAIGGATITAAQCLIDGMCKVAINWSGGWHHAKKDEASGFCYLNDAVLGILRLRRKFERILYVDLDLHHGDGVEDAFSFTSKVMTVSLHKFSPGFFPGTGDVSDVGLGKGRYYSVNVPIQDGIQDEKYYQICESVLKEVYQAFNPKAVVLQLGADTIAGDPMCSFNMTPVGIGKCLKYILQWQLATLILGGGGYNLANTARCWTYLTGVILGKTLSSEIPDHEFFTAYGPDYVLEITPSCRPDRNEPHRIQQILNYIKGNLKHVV
Experiment: Fluor de Lys fluorogenic deacetylase inhibition assay with AcRHKK
Assay type: biochemical

Ki [mM]	SMILES
4.48 ± 0.221	CCCCCCCCCC(=O)O [Decanoic acid]
2.35 ± 0.341	CCCCCC(=O)O [Hexanoic acid]
